Ends that are not written are not given here. Peptide text beside a SMILES is read from it.
How the values were obtained:
CRF2R = target: T1, CRF2R (Homo sapiens, UniProt Q13324); test: CRF2R agonist activation (EC50 / Emax), called comparative CRF binding; format: cell-based; conditions: for Emax: read-out: CRF2R Emax; for EC50: read-out: CRF2R EC50
T1 sequence (Q13324 1-411): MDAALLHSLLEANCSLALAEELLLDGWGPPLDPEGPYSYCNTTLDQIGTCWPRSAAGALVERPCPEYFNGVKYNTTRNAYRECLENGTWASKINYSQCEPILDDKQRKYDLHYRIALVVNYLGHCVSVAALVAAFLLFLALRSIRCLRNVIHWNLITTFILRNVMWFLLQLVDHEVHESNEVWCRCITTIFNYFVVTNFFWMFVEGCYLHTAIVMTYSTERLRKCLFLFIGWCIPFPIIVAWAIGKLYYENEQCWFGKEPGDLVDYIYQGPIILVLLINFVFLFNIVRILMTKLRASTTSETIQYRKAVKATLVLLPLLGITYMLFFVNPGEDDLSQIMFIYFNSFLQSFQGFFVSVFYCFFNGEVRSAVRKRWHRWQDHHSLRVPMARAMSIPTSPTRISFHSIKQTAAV
How it was run: (§1)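 Agonism is scored from cAMP rise, assayed in lysates or through CRE-driven reporter expression, after peptide contact with cells bearing human CRF2R or CRF1R, compared against vehicle-treated cells.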

CRF1R = target: T2, CRF1R (Homo sapiens, UniProt P34998); test: CRF1R agonist activation (EC50 / Emax), called comparative CRF binding; format: cell-based; conditions: for Emax: read-out: CRF1R Emax; for EC50: read-out: CRF1R EC50
T2 sequence (P34998 24-415): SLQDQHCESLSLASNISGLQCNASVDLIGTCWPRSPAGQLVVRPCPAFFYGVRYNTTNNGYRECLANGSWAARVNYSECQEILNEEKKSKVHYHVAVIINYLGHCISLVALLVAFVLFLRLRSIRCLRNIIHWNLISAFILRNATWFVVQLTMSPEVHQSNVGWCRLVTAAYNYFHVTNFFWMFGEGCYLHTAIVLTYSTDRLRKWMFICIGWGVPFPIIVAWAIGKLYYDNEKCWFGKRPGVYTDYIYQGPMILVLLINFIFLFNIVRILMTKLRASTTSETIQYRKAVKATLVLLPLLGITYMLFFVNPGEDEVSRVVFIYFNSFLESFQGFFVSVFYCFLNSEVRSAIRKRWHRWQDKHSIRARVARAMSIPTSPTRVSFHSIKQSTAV
How it was run: as §1

## CC[C@H](C)[C@H](NC(=O)[C@H](C)NC(=O)[C@H](CC(N)=O)NC(=O)[C@H](CCC(N)=O)NC(=O)[C@H](CCC(=O)O)NC(=O)[C@H](C)NC(=O)[C@H](CCCNC(=N)N)NC(=O)[C@H](CCC(=O)O)NC(=O)[C@H](CCCNC(=N)N)NC(=O)[C@H](CCC(N)=O)NC(=O)[C@H](CO)NC(=O)[C@H](CCC(N)=O)NC(=O)[C@@H](NC(=O)[C@H](CCCCN)NC(=O)[C@H](CCC(=O)O)NC(=O)[C@H](CC(C)C)NC(=O)[C@H](CCC(=O)O)NC(=O)[C@H](CC(C)C)NC(=O)[C@H](CC(C)C)NC(=O)[C@@H](NC(=O)[C@H](CCCNC(=N)N)NC(=O)[C@H](CC(C)C)NC(=O)[C@H](CC(C)C)NC(=O)[C@H](CC(C)C)NC(=O)[C@H](CC(C)C)NC(=O)[C@@H]1CCCN1C(=O)[C@H](CC(C)C)NC(=O)[C@H](CC(=O)O)NC(=O)[C@@H](NC(=O)[C@H](CO)NC(=O)[C@H](CC(C)C)NC(=O)[C@H](CO)NC(=O)[C@@H]1CCCN1)[C@@H](C)CC)[C@@H](C)O)[C@@H](C)O)C(=O)N[C@H](C(=O)N[C@@H](Cc1ccccc1)C(=O)N[C@@H](C)C(=O)N[C@@H](CO)C(=O)N[C@H](C(N)=O)C(C)C)[C@@H](C)CC [compound 344] (H-PSLSIDLPLLLLRTLLELEKTQSQRERAEQNAIIFASV-NH2)
CRF2R
  Emax: 94.5%
CRF1R
  Emax: 77.7%

## CC[C@H](C)[C@H](N)C(=O)N[C@H](C(=O)N[C@@H](CC(C)C)C(=O)N[C@@H](CO)C(=O)N[C@@H](CC(C)C)C(=O)N[C@@H](CC(=O)O)C(=O)N[C@H](C(=O)N1CCC[C@H]1C(=O)N[C@H](C(=O)NCC(=O)N[C@@H](CC(C)C)C(=O)N[C@@H](CC(C)C)C(=O)N[C@@H](CCC(N)=O)C(=O)N[C@H](C(=O)N[C@@H](CC(C)C)C(=O)N[C@@H](CC(C)C)C(=O)N[C@@H](CCC(=O)O)C(=O)N[C@@H](CCC(N)=O)C(=O)N[C@@H](C)C(=O)N[C@@H](CCCCN)C(=O)N[C@@H](CCC(N)=O)C(=O)N[C@@H](CCC(=O)O)C(=O)N[C@@H](C)C(=O)N[C@@H](C)C(=O)N[C@@H](CCCNC(=N)N)C(=O)N[C@@H](CCC(=O)O)C(=O)N[C@@H](CCC(N)=O)C(=O)N[C@@H](C)C(=O)N[C@H](C(=O)N[C@H](C(=O)N[C@@H](CC(N)=O)C(=O)N[C@@H](C)C(=O)N[C@@H](CCCNC(=N)N)C(=O)N[C@H](C(=O)N[C@@H](CC(C)C)C(=O)N[C@@H](C)C(=O)N[C@@H](CCCNC(=N)N)C(=O)N[C@H](C(N)=O)C(C)C)[C@@H](C)CC)[C@@H](C)O)[C@@H](C)O)[C@@H](C)CC)[C@@H](C)CC)C(C)C)C(C)C [compound 124] (H-IVLSLDVPIGLLQILLEQAKQEAAREQATTNARILARV-NH2; N-terminus assumed)
CRF2R
  EC50: 3.49 nM
  Emax: 94%
CRF1R
  EC50: > 100 nM
  Emax: 6%

## CC[C@H](C)[C@H](NC(=O)[C@H](CCCNC(=N)N)NC(=O)[C@H](C)NC(=O)[C@H](CC(N)=O)NC(=O)[C@H](CCC(N)=O)NC(=O)[C@H](CCC(=O)O)NC(=O)[C@H](C)NC(=O)[C@H](CCCNC(=N)N)NC(=O)[C@H](CCC(=O)O)NC(=O)[C@H](CCCNC(=N)N)NC(=O)[C@H](CCC(N)=O)NC(=O)[C@H](CO)NC(=O)[C@H](CCC(N)=O)NC(=O)[C@@H](NC(=O)[C@H](CCCCN)NC(=O)[C@H](CCC(=O)O)NC(=O)[C@H](CC(C)C)NC(=O)[C@H](CCC(=O)O)NC(=O)[C@H](CC(C)C)NC(=O)[C@H](CC(C)C)NC(=O)[C@@H](NC(=O)[C@H](CCCNC(=N)N)NC(=O)[C@H](CC(C)C)NC(=O)[C@H](CC(C)C)NC(=O)[C@H](Cc1ccccc1)NC(=O)[C@H](CC(C)C)NC(=O)[C@@H]1CCCN1C(=O)[C@H](CC(C)C)NC(=O)[C@H](CC(=O)O)NC(=O)[C@@H](NC(=O)[C@H](CO)NC(=O)[C@H](CC(C)C)NC(=O)[C@H](CO)NC(=O)[C@@H]1CCCN1C(=O)[C@H](CC(N)=O)NC(=O)[C@@H](N)CC(=O)O)[C@@H](C)CC)[C@@H](C)O)[C@@H](C)O)C(=O)N[C@@H](Cc1ccccc1)C(=O)N[C@@H](C)C(=O)N[C@@H](CCCNC(=N)N)C(=O)N[C@H](C(N)=O)C(C)C [compound 334] (H-DNPSLSIDLPLFLLRTLLELEKTQSQRERAEQNARIFARV-NH2; N-terminus assumed)
CRF2R
  EC50: 13.2 nM
  Emax: 93.5%
CRF1R
  EC50: ≥ 1000 nM
  Emax: 82.6%

## CC[C@H](C)[C@H](N)C(=O)N[C@H](C(=O)N[C@@H](CC(C)C)C(=O)N[C@@H](CO)C(=O)N[C@@H](CC(C)C)C(=O)N[C@@H](CC(=O)O)C(=O)N[C@H](C(=O)N1CCC[C@H]1C(=O)N[C@H](C(=O)NCC(=O)N[C@@H](CC(C)C)C(=O)N[C@@H](CC(C)C)C(=O)N[C@@H](CCC(N)=O)C(=O)N[C@H](C(=O)N[C@@H](CC(C)C)C(=O)N[C@@H](CC(C)C)C(=O)N[C@@H](CCC(=O)O)C(=O)N[C@@H](CCC(N)=O)C(=O)N[C@@H](CCC(=O)O)C(=O)N[C@@H](CCCCN)C(=O)N[C@@H](CCC(N)=O)C(=O)N[C@@H](CCC(=O)O)C(=O)N[C@@H](C)C(=O)N[C@@H](C)C(=O)N[C@@H](CCCNC(=N)N)C(=O)N[C@@H](CCC(=O)O)C(=O)N[C@@H](CCC(N)=O)C(=O)N[C@@H](C)C(=O)N[C@H](C(=O)N[C@H](C(=O)N[C@@H](CC(N)=O)C(=O)N[C@@H](C)C(=O)N[C@@H](CCCNC(=N)N)C(=O)N[C@H](C(=O)N[C@@H](CC(C)C)C(=O)N[C@@H](C)C(=O)N[C@@H](CCCNC(=N)N)C(=O)N[C@H](C(N)=O)C(C)C)[C@@H](C)CC)[C@@H](C)O)[C@@H](C)O)[C@@H](C)CC)[C@@H](C)CC)C(C)C)C(C)C [compound 125] (H-IVLSLDVPIGLLQILLEQEKQEAAREQATTNARILARV-NH2; N-terminus assumed)
CRF2R
  Emax: 99%
CRF1R
  Emax: 9%

## CC[C@H](C)[C@H](NC(=O)[C@H](C)NC(=O)[C@H](CC(N)=O)NC(=O)[C@H](CCC(N)=O)NC(=O)[C@H](CCC(=O)O)NC(=O)[C@H](C)NC(=O)[C@H](CCCNC(=N)N)NC(=O)[C@H](CCC(=O)O)NC(=O)[C@H](CCCNC(=N)N)NC(=O)[C@H](CCC(N)=O)NC(=O)[C@H](CO)NC(=O)[C@H](CCC(N)=O)NC(=O)[C@@H](NC(=O)[C@H](CCCNC(=N)N)NC(=O)[C@H](C)NC(=O)[C@H](CC(C)C)NC(=O)[C@H](CCC(=O)O)NC(=O)[C@H](CC(C)C)NC(=O)[C@H](CC(C)C)NC(=O)[C@@H](NC(=O)[C@H](CCCNC(=N)N)NC(=O)[C@H](CC(C)C)NC(=O)[C@H](CC(C)C)NC(=O)[C@H](Cc1ccccc1)NC(=O)[C@H](Cc1ccccc1)NC(=O)[C@@H]1CCCN1C(=O)[C@H](CC(C)C)NC(=O)[C@H](CC(=O)O)NC(=O)[C@@H](NC(=O)[C@H](CO)NC(=O)[C@H](CC(C)C)NC(=O)[C@H](CO)NC(=O)[C@@H]1CCCN1C(=O)[C@H](CC(N)=O)NC(=O)[C@@H](N)CC(=O)O)[C@@H](C)CC)[C@@H](C)O)[C@@H](C)O)C(=O)N[C@H](C(=O)N[C@@H](Cc1ccccc1)C(=O)N[C@@H](C)C(=O)N[C@@H](CO)C(=O)N[C@H](C(N)=O)C(C)C)[C@@H](C)CC [compound 184] (H-DNPSLSIDLPFFLLRTLLELARTQSQRERAEQNAIIFASV-NH2; N-terminus assumed)
CRF2R
  Emax: 96.5%
CRF1R
  Emax: 77.3%

## CC[C@H](C)[C@H](N)C(=O)N[C@H](C(=O)N[C@@H](CC(C)C)C(=O)N[C@@H](CO)C(=O)N[C@@H](CC(C)C)C(=O)N[C@@H](CC(=O)O)C(=O)N[C@H](C(=O)N1CCC[C@H]1C(=O)N[C@H](C(=O)NCC(=O)N[C@@H](CC(C)C)C(=O)N[C@@H](CC(C)C)C(=O)N[C@@H](CCC(N)=O)C(=O)N[C@H](C(=O)N[C@@H](CC(C)C)C(=O)N[C@H](C(=O)N[C@@H](CCC(=O)O)C(=O)N[C@H](C(=O)N[C@@H](CCC(=O)O)C(=O)N[C@@H](CCCCN)C(=O)N[C@@H](CCC(N)=O)C(=O)N[C@@H](CCC(=O)O)C(=O)N[C@@H](CCCCN)C(=O)N[C@@H](CCC(=O)O)C(=O)N[C@@H](CCCCN)C(=O)N[C@@H](CCC(N)=O)C(=O)N[C@@H](CCC(N)=O)C(=O)N[C@@H](C)C(=O)N[C@@H](C)C(=O)N[C@@H](CC(N)=O)C(=O)N[C@@H](CC(N)=O)C(=O)N[C@@H](CCCNC(=N)N)C(=O)N[C@@H](CC(C)C)C(=O)N[C@@H](CC(C)C)C(=O)N[C@@H](CC(C)C)C(=O)N[C@@H](CC(=O)O)C(=O)N[C@H](C(=O)N[C@H](C(N)=O)[C@@H](C)CC)[C@@H](C)O)[C@@H](C)CC)[C@@H](C)CC)[C@@H](C)CC)[C@@H](C)CC)C(C)C)C(C)C [compound 154] (H-IVLSLDVPIGLLQILIEIEKQEKEKQQAANNRLLLDTI-NH2; N-terminus assumed)
CRF2R
  Emax: 100%
CRF1R
  Emax: 7%

## SQEIVLSLDVPIGLLREVLEMTKADQLAQQAHSNRKLLDIA-NH2 [compound 7]
CRF2R
  EC50: ≥ 100 nM
CRF1R
  EC50: ≥ 100 nM

— US6936585B2, “Corticotropin releasing factor 2 receptor agonists” (priority 2002, dated 2005)
